In brackets after ≈: the same amount, converted by molar mass.
System: IgG fraction of anti-ampicillin antiserum (antibodies raised against the hapten-BSA immunogen of Example 2)
Details: for % CR, Assay 1 / % CR, Assay 2 / % CR, Assay 3: % CR = IC50amp/IC50pen x 100; for IC50, Assay 1 / IC50, Assay 2 / IC50, Assay 3: concentration causing 50% displacement of signal, standards in TBST, ampicillin-HRP conjugate; for IC50, Mean Results / % CR, Mean Results: mean of Assays 1-3; for % CR, Mean Results: relative to 100% for ampicillin
Description: An aqueous solution of the immunogen of Example 2 was formulated with Freund's Complete Adjuvant (FCA) to form an emulsion consisting of 2 mg/ml immunogen in 50% (v/v) FCA. Three sheep were immunised with this emulsion, 0.25 ml being subcutaneously injected at each of 4 sites in the flank of each animal. Subsequent immunisations (boosts) contained 1 mg/ml immunogen emulsified in 50% (v/v) Freund's Incomplete Adjuvant (FIA) and were administered in the same manner at monthly intervals for 1 year. Blood sampling took place 7 to 14 days after each boost. Each sample was processed to produce antiserum which was further purified by caprylic acid and ammonium sulfate precipitation to yield an immunoglobulin G (IgG) fraction. The IgG fraction was evaluated by competitive ELISA, microtiter plate assay, as described below.
Serial dilutions of the IgG fraction of each antiserum to be tested (prepared in accordance with Example 4) were prepared in 10 mM Tris, pH 8.5. The wells of an enhanced binding 96 well polystyrene microtiter plate were coated with these dilutions (as shown in FIG. 2) by incubation at 37° C. for 2 hours (125 μl/well). The plate was washed 4 times with Tris buffered saline (pH7.4) containing Tween (Trade Mark) 20 (TBST) and tapped dry. […] 50 μl of TBST was added to the remaining (control) wells. […] The plate was incubated at 37° C. for 2 hours. The excess unbound conjugate was removed by washing 6 times over a 10 minute period with TBST. 125 μl of tetramethylbenzidine (TMB) substrate solution was added to each well of the plate, which was then incubated for 15 to 20 minutes, in the dark, at room temperature. The reaction was terminated by addition of 125 μl 0.2M H2SO4 to each well. The absorbance was then measured at 450 nm using a microtiter plate reader.
Standard solutions of benzylpenicillin (penicillin G-PenG), amoxycillin (Amox), cloxacillin (Clox), dicloxacillin (Diclox) and oxacillin (Oxa) were prepared in TBST at 0, 1, 5, 10, 50, 100, 200 and 500 ng/ml.

Structure (SMILES)	% CR, Assay 1 [%]	IC50, Assay 1 [ng/mL]	% CR, Assay 2 [%]	IC50, Assay 2 [ng/mL]	% CR, Assay 3 [%]	IC50, Assay 3 [ng/mL]	IC50, Mean Results [ng/mL]	% CR, Mean Results [%]
CC1(C)S[C@@H]2[C@H](NC(=O)Cc3ccccc3)C(=O)N2[C@H]1C(=O)O [PenG, benzylpenicillin]	63	2.7 (≈ 8.07 nM)	78	3.2 (≈ 9.57 nM)	74	3.4 (≈ 10.2 nM)	3.1 (≈ 9.27 nM)	72
Cc1onc(-c2c(Cl)cccc2Cl)c1C(=O)N[C@@H]1C(=O)N2[C@@H]1SC(C)(C)[C@@H]2C(=O)O [Dicloxa, dicloxacillin]	45	3.8 (≈ 8.08 nM)	42	6.0 (≈ 12.8 nM)	51	4.9 (≈ 10.4 nM)	4.9 (≈ 10.4 nM)	46
Cc1onc(-c2ccccc2Cl)c1C(=O)N[C@@H]1C(=O)N2[C@@H]1SC(C)(C)[C@@H]2C(=O)O [Cloxa, cloxacillin]	50	3.4 (≈ 7.8 nM)	43	5.8 (≈ 13.3 nM)	43	5.8 (≈ 13.3 nM)	5 (≈ 11.5 nM)	45
CC1(C)S[C@@H]2[C@H](NC(=O)[C@H](N)c3ccccc3)C(=O)N2[C@H]1C(=O)O [Amp, ampicillin]	100	1.7 (≈ 4.87 nM)	100	2.5 (≈ 7.15 nM)	100	2.5 (≈ 7.15 nM)	2.2 (≈ 6.3 nM)	100
CC1(C)SC2C(NC(=O)C(N)c3ccc(O)cc3)C(=O)N2C1C(=O)O (stereo not drawn) [Amox, amoxycillin]	94	1.8 (≈ 4.93 nM)	83	3.0 (≈ 8.21 nM)	83	3.0 (≈ 8.21 nM)	2.6 (≈ 7.12 nM)	87
Cc1onc(-c2ccccc2)c1C(=O)N[C@@H]1C(=O)N2[C@@H]1SC(C)(C)[C@@H]2C(=O)O [Oxa, oxacillin]	42.5	4.0 (≈ 9.96 nM)	36	7.0 (≈ 17.4 nM)	38	6.6 (≈ 16.4 nM)	5.9 (≈ 14.7 nM)	39
